Measurements published in patent US20200108043A1, “COMPOUNDS AND COMPOSITIONS FOR EXTENDING LIFESPAN OF A SUBJECT” (YALE UNIVERSITY, priority 2017, published 2020).
“Also recorded” adds a separate entry of the source.

Experiments:
C. elegans = assay: Roundworm (C. elegans) lifespan extension; type: in vivo, Caenorhabditis elegans; details: 10 μM in NGM plates, treated for duration of lifespan, vs control
Protocol: Synchronized animals were obtained using the egg-laying method, allowing young […] eggs for 4 hours on bacteria-seeded plates. For each treatment group, 120 synchronized day-1 adults were used. All experiments were carried out at 20° C. Treatment groups were blinded. Nematode growth media (NGM) plates were made for each treatment group: Negative control (DMSO), Mycophenolic Acid (10 μM in DMSO), and Terreic Acid (10 μM in DMSO). The compounds were added to NGM media before pouring the plates. The plates were then dried overnight before moving them to 4° C. to prevent degradation of the compounds. Plates were seeded with 100 μL of 10× concentrated OP50 E. coli, and dried overnight at room temperature. Plates were UV treated with a UVP CL-1000 Ultraviolet Crosslinker, run twice on the energy setting ‘9999’ for about 5 minutes each run. Worms were transferred to new plates every 2-4 days. Viability was scored every day, with death determined by lack of response to a platinum wire. Missing worms, or those that died due to internal hatching were censored.

Saccharomyces cerevisiae = assay: High-Life (High throughput replicative Lifespan measurement) flow cytometry assay in MEP yeast; type: cell-based; details: fresh samples from secondary source, 24 hours of culture
proteasome = target: T1, proteasome (Saccharomyces cerevisiae, UniProt P30656); assay: Proteasome assay with fluorogenic substrate Suc-LLVY-AMC on yeast protein extracts; type: biochemical; details: wild-type (BY4741) cells, presence vs absence of MPA
T1 construct: with 50 μg of total protein in 200 μL of lysis buffer; endogenous in cells; host or cells: S. cerevisiae BY4741 wild-type or ΔUBR2 cells, glass-bead lysate (total protein extract)
Protocol: For protein extraction, 50 mL of cells were grown for 18 hours to an OD600 of approximately 0.8, then transferred to a 50 mL conical tube and centrifuged at 4255×g for 5 minutes at room temperature. The supernatant was discarded, and the cells were re-suspended in 150 μL of cold lysis buffer (50 mM Tris-HCl, pH 7.5, 0.5 mM EDTA, 5 mM MgCl2, with complete ULTRA mini protease inhibitor tablets, EDTA free) and transferred to a 1.5 mL tube. A ¼ volume of 500-750 μm glass beads (Acros Organics 397641000) was added to each tube. For 10 rounds, the tubes were chilled in ice water for 1 minute, then vortexed at maximum speed for 30 seconds to physically rupture the cells, and returned to the ice water. Samples were then spun for 3 minutes at 2500×g and 4° C., and the supernatant was transferred to a fresh tube. The solution was further clarified by centrifugation at 8000×g for 10 minutes at 4° C., and the supernatant was transferred to a fresh tube. Protein concentration was measured using a Nanodrop measuring the absorbance of the sample at 280 nm.
The proteasome assay used was described in Kruegel, et al. PLoS Genet. 7, (2011). The assay was performed in a 96-well clear-bottom plate (Costar 3603) with 50 μg of total protein in 200 μL of lysis buffer. The fluorogenic proteasome substrate Suc-LLVY-AMC (Bachem 1-1395) was added to a final concentration of 100 μM. Fluorescence intensity with an excitation wavelength of 380 nm and an emission wavelength of 460 nm was recorded at 5-minute intervals using a Neo2 plate reader (BioTek) set to mix constantly and maintain 30° C. Negative control reactions were performed in the presence of 50 μM MG132 (Sigma 474787), a proteasome inhibitor.

COc1c(C)c2c(c(O)c1C/C=C(\C)CCC(=O)O)C(=O)OC2 [mycophenolic acid]
lifespan of C. elegans (C. elegans): measurable extension of lifespan; also recorded: statistically significant lifespan extension | dose-response: cell survival in High-Life (Saccharomyces cerevisiae): clear concentration-dependent effects | proteasome activity in wild-type cells (proteasome): did not activate the proteasome
